Assay results from patent publication US20090202565A1, “TORC POLYNUCLEOTIDES AND POLYPEPTIDES AND METHOD OF USE” (priority 2004, published 2009).
Where no end group is shown, it is not given here.

Tests used:
[1] = test system: CRE-luciferase; assay: CRE-luciferase reporter with dominant negative TORC1(1-44)-eGFP in HeLa cells; format: cell-based
Text: The siRNA results (Example 12) are complicated by the need to use multiple siRNAs and to block multiple TORCs. In order to efficiently block activity of all TORC proteins more readily, a dominant interfering TORC protein is designed which fuses the highly conserved 44 amino-acid CREB-binding domain of TORC1 to eGFP (T1-44eGFP). To block activity of all TORC proteins efficiently, a dominant interfering protein that should specifically block the ability of all TORC's to interact with CREB1 is designed. The CREB1 interaction domain of TORC proteins is present in the first 44 amino acids of TORC1. The N-terminal 44 amino acids, representing the first exon of the TORC1 gene, is nearly 100% conserved in virtually all mammalian, C. elegans and Drosophila TORC proteins, yet has virtually no homology or similarity to any other proteins (Tourgenko et al., 2003). […] HeLa cells are transfected with either the eGFP control or TORC1(1-44)-eGFP with either CRE-luciferase (FIG. 16, panel A) or NFKB-luciferase (panel B) prior to stimulation with 50 uM forskolin/100 uM IBMX or 5 uM ionomycin. In panel C, HEK293 cells are transiently transfected with CRE-luciferase and the β2-adrenergic receptor (β2AR) in combination with either the empty CMV vector, eGFP, or TORC1(1-44)-eGFP fusion and exposed to isoproterenol for 18 hours. […] Thus blockade of TORC function also prevents CRE-activation through a Gs-linked GPCR using isoproterenol.

[2] = test system: NF-kappaB reporter; assay: NFKB-luciferase reporter with dominant negative TORC1(1-44)-eGFP in HeLa cells; format: cell-based
Text: (§1) The siRNA results (Example 12) are complicated by the need to use multiple siRNAs and to block multiple TORCs. In order to efficiently block activity of all TORC proteins more readily, a dominant interfering TORC protein is designed which fuses the highly conserved 44 amino-acid CREB-binding domain of TORC1 to eGFP (T1-44eGFP). To block activity of all TORC proteins efficiently, a dominant interfering protein that should specifically block the ability of all TORC's to interact with CREB1 is designed. The CREB1 interaction domain of TORC proteins is present in the first 44 amino acids of TORC1. The N-terminal 44 amino acids, representing the first exon of the TORC1 gene, is nearly 100% conserved in virtually all mammalian, C. elegans and Drosophila TORC proteins, yet has virtually no homology or similarity to any other proteins (Tourgenko et al., 2003). […] HeLa cells are transfected with either the eGFP control or TORC1(1-44)-eGFP with either CRE-luciferase (FIG. 16, panel A) or NFKB-luciferase (panel B) prior to stimulation with 50 uM forskolin/100 uM IBMX or 5 uM ionomycin. In panel C, HEK293 cells are transiently transfected with CRE-luciferase and the β2-adrenergic receptor (β2AR) in combination with either the empty CMV vector, eGFP, or TORC1(1-44)-eGFP fusion and exposed to isoproterenol for 18 hours. […]

[3] = test system: CRE-luciferase; assay: CRE-luciferase with β2-adrenergic receptor and isoproterenol in HEK293 cells; format: cell-based; details: HEK293 transiently transfected; isoproterenol 18 hours
Text: as §1

[4] = test system: TORC2-eGFP; assay: TORC2-eGFP nuclear translocation in HEK293 cells, fluorescence microscopy; format: cell-based, human; details: for translocation of TORC2-eGFP to the nucleus: 45 min, 10 nM LMB, 10 uM ionomycin, or both
Experimental: (§2) HEK293 cells are transfected with either pCMV-TORC1-eGFP, pCMV-TORC2-eGFP or pCMV-TORC3-eGFP linearized with AseT restriction endonuclease and stable integrants are selected with 700 ug/ml geneticin generating a population of cells that express TORC-eGFP. These are referred to as 293hTORC1, 293hTORC2 or 293hTORC3 cells, respectively. All of the stable TORC-eGFP cell-lines are subjected to fluorescence activated cell sorting to remove non-fluorescing cells.
(§3) The localization of human TORC2 and TORC3 is also examined. Both HeLa cells and HEK293 cells are transfected with either pCMV-TORC2-eGFP or pCMV-TORC3-eGFP.
(§4) In order to assess this possibility, HeLa cells stably expressing TORC1-eGFP are exposed to either no treatment (FIG. 5, panel A), 50 uM forskolin and 100 uM IBMX (panel B), or 1 mM db-cAMP (panel C) for 2 hours. […] Similarly, HEK293 cells stably expressing TORC2-eGFP (FIG. 5, panels D and E) or TORC3-eGFP (panels F and G) are either untreated (panels D and F) or treated with 25 uM forskolin for 1 hour (panels E and G).

[5] = test system: TORC1-eGFP; assay: TORC1 (FLAG-TORC1 / TORC1-eGFP) nuclear translocation in HeLa cells, fluorescence microscopy; format: cell-based, human
Experimental: Generation of stable TORC-eGFP cell lines. HeLa cells are transfected with pCMV-TORC1-eGFP and stable integrants are selected with 700 ug/ml geneticin. A single colony that expressed TORC1-eGFP is isolated and expanded (HhTORC1eGFP cells). […]
HeLa cells are transfected with FLAG-TORC1 (FIG. 1, panels A and B) or TORC1-eGFP (panels C and D). Cells are either untreated (panels A and C) or treated with 10 nM leptomycin-B (LMB), a fungal inhibitor of CRM1 mediated nuclear export of proteins, for 90 min (panels B and D). FLAG-tagged protein is visualized by immunofluorescence while eGFP-tagged proteins are directly visualized by fluorescence. […] Since a variety of signal transduction proteins are regulated by either nuclear export or stimulus induced import, the localization of TORC1 is examined after treatment with LMB. […]

[6] = test system: TORC3-eGFP; assay: TORC3-eGFP nuclear translocation in HEK293 cells, fluorescence microscopy; format: cell-based, human; details: for translocation of TORC3-eGFP to the nucleus: 45 min, 10 nM LMB, 10 uM ionomycin, or both
Experimental: as §2, §3, §4

[7] = test system: TORC1-eGFP; assay: TORC1-eGFP nuclear translocation in stably expressing HEK293 cells; format: cell-based, human; details: stable HEK293; for translocation of TORC1-eGFP to the nucleus: 45 min, 10 nM LMB, 10 uM ionomycin, or both; for TORC1-eGFP fluorescence localization: 1 hr, 10 nM LMB alone, 160 nM isoproterenol alone, or isoproterenol plus LMB
Experimental: as §2
To assess whether TORC translocation is induced by stimulation of endogenous G-protein coupled receptors (GPCRs), HEK293 cells stably expressing various TORC-eGFP fusions are treated with isoproterenol, a β2-adrenergic receptor agonist, for 1 hr.

[8] = test system: CRE-driven luciferase; assay: CRE-dependent luciferase reporter in HeLa and HeLa::TORC1-eGFP cells; format: cell-based; details: 18 hours; for activation of CRE-driven luciferase in naïve HeLa cells: 5 uM ionomycin, 10 uM PMA
Text: To determine the effect of TORC1 over-expression and localization on gene expression, CRE-dependent transcription is compared in untransfected HeLa cells and HeLa cells stably expressing TORC1-eGFP using a luciferase reporter containing a CRE-dependent promoter.

[9] = test system: dTORC-eGFP; assay: dTORC-eGFP translocation in Drosophila larval salivary glands; format: cell-based; details: 5 uM ionomycin 1 hour; 100 uM db-cAMP 4 hours
Experimental: Drosophila Methods. The Gal4 responder construct, UAS-GFP-TORC, is created by PCR cloning the eGFP gene from the pEGFP—N1 vector (Clontech # 6085-1) and the dTORC gene from Drosophila genomic DNA into the pUAST vector (Brand and Perrimon, 1993). This construct is injected into Drosophila embryos by P-element germline transformation to create transgenic lines (Rubin and Spradling, 1982). To induce expression of the fusion protein, flies containing UAS-GFP-TORC are crossed to flies containing the HS-Gal4 construct obtained from the Bloomington Stock Center, University of Indiana, Bloomington, Ind. The larvae are heat-shocked at […] and salivary glands from late third instar larvae were dissected in PBS, placed in Sang M3 media (Sigma #S3652) containing various chemical treatments in a 96-well plate. The glands are visualized using the Nikon Eclipse TE2000-E fluorescent microscope. Images are taken at a 100× magnification.
A fusion of eGFP and the Drosophila TORC (dTORC) protein is generated. […] Salivary glands dissected from transgenic larvae expressing the dTORC fusion protein are examined by microscopy. dTORC-eGFP is localized in the cytoplasm in all of the cells in the gland (FIG. 17, panels A and D). […] Thus, the localization of TORC in Drosophila is regulated by cAMP and calcium, just as in human cells. […]

[10] = transfected HEK293, LMB treatment
[11] = stable HEK293, 160 nM isoproterenol alone, 1 hr

Q: Which results are given for “T1(1-44)eGFP: dominant interfering protein fusing the 44 amino-acid CREB-binding domain of TORC1 to eGFP (MATSNNPRKFSEKIALHNQKQAEETAAFEEVMKDLSLTRAARLQ; also: fused to eGFP)”?
A: effect on CRE activation through forskolin/IBMX or ionomycin and PMA ([1]; HeLa, 50 uM forskolin/100 uM IBMX or 5 uM ionomycin): potently blocks CRE activation; effect on activity of all three TORCs on CRE-activation ([1]; data not shown): inhibited; effect on enhanced CRE-response in HhTORC1 cells ([1]; data not shown): effectively blocked; effect on activation of NF-kappaB reporter by ionomycin and PMA [2]: no effect on activation of an NF-kappaB reporter; effect on CRE-luciferase induction by β2AR and isoproterenol [3]: strongly inhibits CRE-luciferase induction

Q: How did the “time until TORC2-eGFP becomes predominantly nuclear following LMB exposure” value ([4]; stable HEK293) turn out when `CCC(=C/[C@H](C)C/C=C/C(C)=C/[C@@H](C)C(=O)[C@@H](C)[C@H](O)[C@@H](C)C/C(C)=C/C(=O)O)/C=C/[C@@H]1OC(=O)C=C[C@@H]1C` [LMB, Leptomycin B] was run?
A: ≤ 120 min

Q: What about the “translocation of TORC2-eGFP to the nucleus” value ([4]; stable HEK293) of the same compound?
A: weak or no translocation to the nucleus

Q: And the “nuclear accumulation of TORC2-eGFP” value [4, 10]?
A: induces accumulation of both proteins in the nuclei

Q: And the “time to near complete TORC1 translocation following LMB exposure” value ([5]; HeLa cells, data not shown)?
A: less than 30 minutes

Q: What about the “subcellular localization of TORC1 fusion proteins” value ([5]; HeLa transfected with FLAG-TORC1 or TORC1-eGFP, 10 nM LMB, 90 min) of the same compound?
A: present predominantly in the nucleus

Q: And the “TORC1-eGFP translocation (nuclear-cytoplasmic fluorescence difference), positive control of cDNA screen” value ([5]; HeLa, 384-well plates, Cellomics ArrayScan II)?
A: detected in virtually all control wells

Q: What about the “time until TORC3-eGFP becomes predominantly nuclear following LMB exposure” value ([6]; stable HEK293) of the same compound?
A: approximately 90 min

Q: What about the “translocation of TORC3-eGFP to the nucleus” value ([6]; stable HEK293) of the same compound?
A: weak or no translocation to the nucleus

Q: And the “nuclear accumulation of TORC3-eGFP” value [6, 10]?
A: induces accumulation of both proteins in the nuclei

Q: And the “translocation of TORC1-eGFP to the nucleus” value [7]?
A: weak or no translocation to the nucleus

Q: And the TORC1-eGFP fluorescence localization [7]?
A: eGFP fluorescence originating from the cytoplasm

Q: And the “induction of CRE-driven luciferase” value ([8]; 10 nM LMB, naïve HeLa vs HeLa::TORC1-eGFP)?
A: significant induction only in the HeLa::TORC1-eGFP cells

Q: `CCCCCCCCCCCCCC(=O)O[C@@H]1[C@@H](C)[C@@]2(O)[C@@H](C=C(CO)C[C@]3(O)C(=O)C(C)=C[C@@H]23)[C@@H]2C(C)(C)[C@]12OC(C)=O` [PMA, Phorbol 12-myristate 13-acetate] was tested. Which “accumulation of TORC1-eGFP in the nucleus in response to PMA” value ([5]; HeLa stable TORC1-eGFP, 10 uM PMA, 1 hour) did it give?
A: induced TORC1-eGFP to accumulate in the nucleus

Q: What about the “activation of CRE-driven luciferase in naïve HeLa cells” value [8] of the same compound?
A: modest level of activation

Q: How did the “translocation of TORC2-eGFP to the nucleus” value ([4]; stable HEK293) turn out when `C[C@H](CCC(=O)O)C[C@H](C)C[C@H](C)C(=O)/C=C(\O)[C@H](C)C[C@H](C)C/C=C/[C@@H](C)[C@@H](O)[C@@H](C)[C@@H](O)C[C@@H]1CC[C@@](C)([C@H]2CC[C@@](C)([C@@H](C)O)O2)O1` [ionomycin] was run?
A: weak or no translocation to the nucleus

Q: And the “accumulation of TORC1-eGFP in the nucleus in response to calcium” value ([5]; HeLa stable TORC1-eGFP, 1 uM ionomycin or 10 uM CPA, 1 hour)?
A: potently induce accumulation of the TORC1-eGFP in the nucleus

Q: And the “translocation of TORC3-eGFP to the nucleus” value ([6]; stable HEK293)?
A: weak or no translocation to the nucleus

Q: What about the “translocation of TORC1-eGFP to the nucleus” value [7] of the same compound?
A: weak or no translocation to the nucleus

Q: What about the “activation of CRE-driven luciferase in naïve HeLa cells” value [8] of the same compound?
A: modest level of activation

Q: What about the “translocation of dTORC-eGFP into the nucleus” value [9] of the same compound?
A: induced translocation of dTORC-eGFP into the nucleus

Q: How did the “translocation of TORC1-eGFP on raising intracellular cAMP” value ([5]; HeLa stable TORC1-eGFP, 50 uM forskolin and 100 uM IBMX, or 1 mM db-cAMP, 2 hours) turn out when `CCCC(=O)Nc1ncnc2c1ncn2[C@@H]1O[C@@H]2COP(=O)(O)O[C@H]2[C@H]1OC(=O)CCC` [db-cAMP, dibutyryl cyclic-AMP] was run?
A: partial translocation of TORC1-eGFP

Q: And the “translocation of dTORC-eGFP into the nucleus” value [9]?
A: induced translocation of dTORC-eGFP into the nucleus

Q: For `CC(C)NCC(O)c1ccc(O)c(O)c1` (stereo not drawn) [isoproterenol, Isoproterenol], which TORC2-eGFP fluorescence localization [4, 11] is on record?
A: fluorescence from the nucleus occurs

Q: And the TORC3-eGFP fluorescence localization [6, 11]?
A: fluorescence from the nucleus occurs

Q: And the TORC1-eGFP fluorescence localization [7]?
A: eGFP fluorescence originating from the cytoplasm
